Article PMC4033659 (Journal of Medicinal Chemistry, 2014)

assay: In vivo PK in rats after ip administration; conditions: rat, ip 10 mg/kg, at Tmax 30 min

Row | SMILES | plasma (maximum concentration) [µM] | brain (maximum concentration) [µM]
1 | COc1ccc(C(=O)O)cc1OCCCCOc1ccc(C(=O)CC(C)(C)C)c(O)c1C [Compound 72, 3-(4-(4-(3,3-Dimethylbutanoyl)-3-hydroxy-2-methylphenoxy)butoxy)-4-methoxybenzoic Acid] | 2.44 ± 2.19 | –
2 | CCCC(=O)c1ccc(OCCCCOc2cc(C(=O)O)ccc2OC)c(C)c1O [Compound 68, 3-(4-(4-Butyryl-3-hydroxy-2-methylphenoxy)butoxy)-4-methoxybenzoic Acid] | 2.18 ± 0.58 | –
3 | Cc1c(OCCCCOc2ccc(F)c(C(=O)O)c2)ccc(C(=O)C(C)C)c1O [Compound 65, 2-Fluoro-5-(4-(3-hydroxy-4-isobutyryl-2-methylphenoxy)butoxy)benzoic Acid] | 5.44 ± 2.92 | –
4 | Cc1c(OCCCCOc2ccc(F)c(C(=O)O)c2)ccc(C(=O)CC(C)(C)C)c1O [Compound 75, 5-(4-(4-(3,3-Dimethylbutanoyl)-3-hydroxy-2-methylphenoxy)butoxy)-2-fluorobenzoic Acid] | 6.52 ± 0.54 | 0.22 ± 0.04
5 | COc1cc(C(=O)O)ccc1OCCCCOc1ccc(C(=O)CC(C)C)c(O)c1C [Compound 44, 4-{4-[3-Hydroxy-2-methyl-4-(3-methylbutanoyl)phenoxy]butoxy}-3-methoxybenzoic Acid] | 10.57 ± 2.52 | 0.23 ± 0.10
